{
  "source": "patent US20220273016A1",
  "about": "“HUMAN MILK OLIGOSACCHARIDES FOR CONTROL OF DIETARY RESPONSE AND METABOLIC PHENOTYPE” (The Regents of the University of California, priority 2019, published 2022)",
  "key": {"[1]": {"tested_on": "sterol regulatory element binding protein-1c (SREBP-1c)", "test": "Hepatic gene expression of SREBP-1c (real-time PCR)", "type": "in vivo, mice", "conditions": "10% 2′-FL supplementation diet, 8 weeks", "procedure": "(§1) Body composition for fat and lean mass (FIGS. 2A and 2B) was analyzed in live animals using EchoMRI-100 ™ from Echo Medical Systems (Houston, Tex.) every two weeks in mice fed an LF or HF with or without 10% 2′-FL supplementation. To measure the size of adipocytes (FIG. 2C), mesenteric adipose tissue collected at euthanasia was fixed in 10% neutral-buffered formalin (Thermo Fisher Scientific, Waltham, Mass.) overnight and transferred to 70% ethanol for one day. Afterwards, the tissues were processed in a routine manner for paraffin sections (Tissue Tek VIP Tissue Processor; Sakura Finetek USA, Torrance, Calif.). Paraffin-embedded sections (5 μm) were cut and stained with H&E (Sigma-Aldrich) for microscopic examination (Olympus BX60, Waltham, Mass.) at 20× magnification. To quantitate adipocyte size (FIG. 2C), the H&E-stained sections were analyzed using the ImageJ software (National Institutes of Health, Bethesda, Md.). […] Genes of interest were analyzed according to the 2^−ΔΔT method and compared with control samples. […]"}, "[2]": {"test": "Gut permeability of cecum in Ussing chambers (FD-4 flux)", "type": "in vivo, mice", "conditions": "10% 2′-FL supplementation diet, 8 weeks, flux at 90 min", "procedure": "(§2) To measure gut permeability (FIGS. 4A and 4B), a section of cecum was opened along the mesenteric border and mounted in Ussing chambers (Physiologic Instruments, San Diego, Calif.), exposing 0.3 cm^2 of tissue surface area to 2.5 ml of oxygenated Krebs-glucose (10 mM) and Krebs-mannitol (10 mM) at 37° C. on the serosal and luminal sides, respectively. The paracellular pathway and transcellular pathway were measured as the flux of FITC-4000 (FD-4; Sigma-Aldrich) and horseradish peroxidase (HRP Type VI; Sigma Aldrich), respectively. FD-4 ([…]) and HRP ([…]) were added to the mucosal chamber, and samples were collected from the serosal chamber every 30 min for 2 h. The concentration of FD-4 was measured via fluorescence at excitation of 485 nm and emission of 538 nm. O-dianisidine substrate was used to detect HRP at absorbance 450 nm. Data are shown as flux at 90 min. Gene expression of IL-22 in the ileum (FIG. 4C) and MCP-1 (FIG. 4E) in adipose tissue were measured as described in Example 2. LBP levels (FIG. 4D) were detected in plasma via enzyme-linked immunosorbent assay according to manufacturer's recommendation (Biometec). […] For FIGS. 4A-4E, statistical analysis was performed by using Prism software (Prism 8.4; GraphPad Software, La Jolla, Calif.). Data are presented as means SEMs. ROUT test was used to exclude outliers. Differences were considered significant if P<0.05."}, "[3]": {"tested_on": "monocyte chemoattractant protein-1 (MCP-1)", "test": "Gene expression of MCP-1 in adipose tissue (real-time PCR)", "type": "in vivo, mice", "conditions": "HF + 10% 2′-FL in drinking water, 6 weeks", "procedure": "as §2"}, "c-Fos": {"tested_on": "c-Fos", "test": "c-Fos expression in hindbrain (NTS and AP) after CCK injection", "type": "in vivo, mice", "conditions": "10% 2′-FL supplementation, CCK i.p.", "procedure": "(§3) After 4 weeks on respective diets, 2′-FL sensitivity to the satiating effect of the gut peptide CCK was tested (FIG. 3A). Experiments were performed at the onset of the dark phase. Mice were fasted on wire-bottom cages for 6 h during the light phase. At the onset of the dark phase, CCK (octapeptide, sulfated, Bachem, Torrance, Calif., 100 μl at […]; i.p.) or saline (100 μl; i.p.) was administered. Food was placed in the cage and food intake recorded after 20 min. After 6 weeks of respective diets, c-Fos expression in hindbrain was determined. (FIGS. 3B and 3C). Mice were fasted for 4 h, ip injected with CCK ([…]), and euthanized using deep anesthesia induced with pentobarbital (Fatal Plus, Vortech Pharmaceuticals, Dearborn, Mich., USA; 300 mg/kg; i.p.). The hindbrain was collected and post-fixed in 4% paraformaldehyde (Electron Microscopy Sciences, Hatfield, Pa.). Hindbrains were cryosectioned at 30 μm thickness and stained for c-Fos protein expression in the NTS and AP regions. […] Images were acquired using a confocal microscope (Leica TCS SP8 STED 3×; Leica, Wetzlar, Germany) and quantified in a blinded manner using Imaris Software (Bitplane, Zurich, Switzerland). […]"}, "[4]": {"tested_on": "lipopolysaccharide-binding protein (LBP)", "test": "Plasma LBP level by enzyme-linked immunosorbent assay", "type": "in vivo, mice", "conditions": "HF + 10% 2′-FL in drinking water, 6 weeks", "procedure": "as §2"}, "[5]": {"test": "Body weight and energy intake in mice fed a high-fat diet with 2′-FL in drinking water", "type": "in vivo, Male C57/BL6 mice", "conditions": "2′-FL 10% (w/v) in drinking water, 6 wk, vs HF group", "procedure": "Animals were maintained and handled in accordance with protocols approved by the Institutional Animal Care and Use Committee (University of California, Davis). Male C57/BL6 mice (n=6/group; 6 week old, Harlan, San Diego, Calif.) were split into three weight-matched groups and fed either a low-fat (LF; 10% kcal as fat), high-fat (HF; 45% kcal as fat), or HF diet with 2′-FL (HF_2′-FL) at 10% (w/v) in drinking water for 6 wk. All animals were housed individually at 22° C. with 12 h:12 h light-dark cycles. Body weight and food intake were measured twice a week. Statistical analysis was performed using Prism software (Prism 8.1.2; GraphPad Software). Six-week HF feeding increased energy intake compared to the LF groups but without statistical significance (FIG. 1B). […] For FIGS. 1A and 1B, data are presented as means±SEMs. ROUT test was used to exclude outliers. Differences were considered significant if P<0.05."}, "[6]": {"tested_on": "peroxisome proliferator-activated receptor γ (PPAR γ)", "test": "Hepatic gene expression of PPARγ (real-time PCR)", "type": "in vivo, mice", "conditions": "10% 2′-FL supplementation diet, 8 weeks", "procedure": "as §1"}, "[7]": {"test": "Body composition (EchoMRI fat and lean mass) and adipocyte size in mice fed LF or HF with or without 10% 2′-FL", "type": "in vivo", "conditions": "10% 2′-FL supplementation diet, 8 weeks", "procedure": "Body composition for fat and lean mass (FIGS. 2A and 2B) was analyzed in live animals using EchoMRI-100 ™ from Echo Medical Systems (Houston, Tex.) every two weeks in mice fed an LF or HF with or without 10% 2′-FL supplementation. To measure the size of adipocytes (FIG. 2C), mesenteric adipose tissue collected at euthanasia was fixed in 10% neutral-buffered formalin (Thermo Fisher Scientific, Waltham, Mass.) overnight and transferred to 70% ethanol for one day. Afterwards, the tissues were processed in a routine manner for paraffin sections (Tissue Tek VIP Tissue Processor; Sakura Finetek USA, Torrance, Calif.). Paraffin-embedded sections (5 μm) were cut and stained with H&E (Sigma-Aldrich) for microscopic examination (Olympus BX60, Waltham, Mass.) at 20× magnification. To quantitate adipocyte size (FIG. 2C), the H&E-stained sections were analyzed using the ImageJ software (National Institutes of Health, Bethesda, Md.). For hepatic gene expression of peroxisome proliferator-activated receptor γ (PPAR γ) and sterol regulatory element binding protein-1c (SREBP-1c) (FIGS. 2D and 2E), total RNA from liver samples was extracted via the TRIzol method (Life Technologies, Grand Island, N.Y.). cDNAs were synthesized from […] of purified RNA samples using iScript cDNA synthesis kit (Bio-Rad, Hercules, Calif.) following the manufacturer's protocol. Real-time PCR was performed with the Quantstudio 6 Flex real-time PCR machine using SyberGreen master mix (Life Technologies) for detection. R-Actin and GAPDH were used as housekeeping genes. Genes of interest were analyzed according to the 2^−ΔΔT method and compared with control samples.\nFor FIGS. 2A-2E, statistical analysis was performed by using Prism software (Prism 8.4; GraphPad Software, La Jolla, Calif.). Data are presented as means±SEMs. ROUT test was used to exclude outliers. Differences were considered significant if P<0.05."}, "[8]": {"test": "CCK feeding study (food intake after i.p. CCK)", "type": "in vivo, mice", "conditions": "HF + 10% 2′-FL, CCK i.p. vs saline, 6 h fast", "procedure": "as §3"}},
  "note": "“Also recorded” adds a separate entry of the source.",
  "data": [
    {"substance": "2′-fucosyllactose [2′-FL]", "values": [
      {"measurement": "gene expression of SREBP-1c in the liver", "setting": "[1]", "value": "downregulates"},
      {"measurement": "paracellular permeability (FD-4 flux in cecum)", "setting": "[2]", "value": "decreased paracellular permeability"},
      {"measurement": "expression of inflammatory cytokines in adipocytes (MCP-1 gene expression in adipose tissue)", "setting": "[3]", "value": "significant decrease of MCP-1 gene expression; also recorded: systemically lowered expression of inflammatory cytokines in adipocytes"},
      {"measurement": "intestinal satiety signals (c-Fos immunopositive cells in NTS and AP)", "setting": "c-Fos", "value": "restores intestinal satiety signals"},
      {"measurement": "circulating LPB levels", "setting": "[4]", "value": "reduced circulating LPB levels"},
      {"measurement": "energy intake", "setting": "[5]; HF diet (45% kcal as fat)", "value": "suppressed"},
      {"measurement": "body weight", "setting": "[5]; HF diet", "value": "lower body weight compared with the HF group"},
      {"measurement": "gene expression of PPAR γ in the liver", "setting": "[6]", "value": "downregulates"},
      {"measurement": "adipogenesis (adipocyte size in visceral adipose tissue)", "setting": "[7]", "value": "suppresses adipogenesis"},
      {"measurement": "adiposity (fat body mass)", "setting": "[7]", "value": "reduced adiposity"},
      {"measurement": "lean mass", "setting": "[7]", "value": "preserving lean mass"},
      {"measurement": "sensitivity to the satiating effect of CCK (food intake after 20 min)", "setting": "[8]", "value": "restores sensitivity to CCK"}
    ]}
  ]
}
